Values quoted from earlier work, collected in paper PMC4357254, “Molecular cloning and characterization of the allatotropin precursor and receptor in the desert locust, Schistocerca gregaria” (Frontiers in Neuroscience, 2015).
Where no end group is shown, it is not given here.

What was measured:
corpora allata (CA) = conditions: in vitro; ref Kataoka et al., [1989]
Source text: Allatotropin (AT) was originally identified as an amidated tridecapeptide isolated from the nervous system of the lepidopteran Manduca sexta. […] Most ATs have a conserved C-terminal pentapeptide that consists of a TARGFa motif although the hymenopteran AT has an exceptional TAYGFa C-terminal (Veenstra et al., [2012]). There are also AT-like peptides (ATLs) that contain more variation in their C-terminal motif but t ...

ATR of M. sexta = conditions: ref Horodyski et al., [2011]
Source text: (§1) ATs exert effects on their cellular targets by binding to receptors with high affinity binding sites that are members of the family of rhodopsin-like G protein-coupled receptors (GPCRs). The AT receptors (ATRs) are orthologous to vertebrate orexin/hypocretin receptors. To date, five ATRs have been characterized; namely the neuropeptide 16 receptor in Bombyx mori (Yamanaka et al., [2008]), the receptors of M. sexta (Horodyski et al., [2011]), Tribolium castaneum (Vuerinckx et al., [2011]), Aedes aegypti (Nouzova et al., [2012]) and Bombus terrestris (Verlinden et al., [2013]). The first three w ...

T. castaneum receptor = conditions: ref Vuerinckx et al., [2011]
Source text: as §1

[1] = test system: neuropeptide 16 receptor in Bombyx mori; conditions: ref Yamanaka et al., [2008]
Source text: as §1

[2] = test system: ATR receptor of B. terrestris; conditions: ref Verlinden et al., [2013]
Source text: as §1

For “Manse-AT: amidated tridecapeptide isolated from the nervous system of the lepidopteran Manduca sexta (GFKNVEMMTARGF-NH2; UniProt P21786 37-49, looked up)”, which “JH biosynthesis in the corpora allata” value (corpora allata (CA)) is on record?
Its value is “stimulate juvenile hormone (JH) biosynthesis”.

What about the “activation of M. sexta ATR” value (ATR of M. sexta) of the same substance?
Its value is “dose-dependently activated”.

And the “activation of T. castaneum ATR” value (T. castaneum receptor)?
Its value is “dose-dependently activated”.

What about the “activation of B. mori neuropeptide 16 receptor” value [1] of the same substance?
The value was “dose-dependently activated”.

And the “activation of B. terrestris ATR” value [2]?
Its value is “responded”.

What about the “concentrations needed for activation of B. terrestris ATR” value ([2]; relative to other ATRs) of the same substance?
Its value is “much higher concentrations were needed”.
